Results reported in ChEMBL document CHEMBL1201862, “PubChem BioAssay data set” (2004).
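In this assay, cells in 96-well plates receive the compound at five concentrations for 48 hours. Endpoints are linearly interpolated between the surrounding concentrations. Abbreviation: GI50, concentration required for 50% inhibition of growth.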 Calls of active or inactive are those of the source. No stated cut-off is given here; in the data, active = GI50 up to about 1.1 µM and inactive = higher.

Key:
Assay in all cases: DTP human tumour cell line panel, 48 h
SF-268 = system: SF-268
UO-31 = system: UO-31
HOP-92 = system: HOP-92
SK-OV-3 = system: SK-OV-3
ACHN = system: ACHN
786-0 = system: 786-0
SF-295 = system: SF-295
SF-539 = system: SF-539
MOLT-4 = system: MOLT-4
CAKI-1 = system: CAKI-1
K562 = system: K562
RXF 393 = system: RXF 393
T47D = system: T47D
Hs-578T = system: Hs-578T
HCT-15 = system: HCT-15
MDA-MB-231 = system: MDA-MB-231
MDA-MB-435 = system: MDA-MB-435
RPMI-8226 = system: RPMI-8226
UACC-62 = system: UACC-62
UACC-257 = system: UACC-257

What does the source list for N#C/C(=C\Nc1ccccn1)C(=O)C1CC1?
GI50 (SF-268): > 100 µM (inactive); GI50 (UO-31): > 100 µM (inactive); GI50 (HOP-92): > 100 µM (inactive); GI50 (SK-OV-3): > 100 µM (inactive); GI50 (ACHN): > 100 µM (inactive); GI50 (786-0): > 100 µM (inactive); GI50 (SF-295): > 100 µM (inactive); GI50 (SF-539): > 100 µM (inactive); GI50 (MOLT-4): > 100 µM (inactive); GI50 (CAKI-1): > 100 µM (inactive); GI50 (K562): > 100 µM (inactive); GI50 (RXF 393): > 100 µM (inactive); GI50 (T47D): > 100 µM (inactive); GI50 (Hs-578T): > 100 µM (inactive); GI50 (HCT-15): > 100 µM; GI50 (MDA-MB-231): > 100 µM (inactive); GI50 (MDA-MB-435): > 100 µM (inactive); GI50 (RPMI-8226): > 100 µM (inactive); GI50 (UACC-62): > 100 µM (inactive); GI50 (UACC-257): > 100 µM (inactive)

Which GI50 (SF-268) does the source give for Cc1cc(Cl)cc2c1NC(=O)/C2=N\Nc1ccccc1[N+](=O)[O-] here?
The GI50 was > 100 µM (inactive).

What about the GI50 (UO-31) of the same molecule?
Its GI50 is > 100 µM (inactive).

And the GI50 (HOP-92)?
Its GI50 is 27 µM (inactive).

What about the GI50 (SK-OV-3) of the same molecule?
Its GI50 is > 100 µM (inactive).

And the GI50 (ACHN)?
Its GI50 is > 100 µM (inactive).

And the GI50 (786-0)?
Its GI50 is 54.6 µM (inactive).

What about the GI50 (SF-295) of the same molecule?
Its GI50 is 64.7 µM (inactive).

What about the GI50 (SF-539) of the same molecule?
The GI50 was > 100 µM (inactive).

And the GI50 (MOLT-4)?
Its GI50 is 74.3 µM (inactive).

What about the GI50 (CAKI-1) of the same molecule?
The GI50 was > 100 µM (inactive).

And the GI50 (K562)?
The GI50 was > 100 µM (inactive).

And the GI50 (RXF 393)?
Its GI50 is > 100 µM (inactive).

What about the GI50 (T47D) of the same molecule?
Its GI50 is > 100 µM (inactive).

What about the GI50 (Hs-578T) of the same molecule?
Its GI50 is 35.3 µM (inactive).

What about the GI50 (HCT-15) of the same molecule?
Its GI50 is > 100 µM.

And the GI50 (MDA-MB-231)?
Its GI50 is 66.8 µM (inactive).

And the GI50 (MDA-MB-435)?
The GI50 was > 100 µM (inactive).

What about the GI50 (RPMI-8226) of the same molecule?
The GI50 was > 100 µM (inactive).

What about the GI50 (UACC-62) of the same molecule?
The GI50 was > 100 µM (inactive).

And the GI50 (UACC-257)?
Its GI50 is > 100 µM (inactive).

Which GI50 (SF-268) does the source give for OCCCCn1cc(Cn2ncc3c(SCc4ccccc4)ncnc32)nn1 here?
Its GI50 is 63.1 µM (inactive).

And the GI50 (UO-31)?
The GI50 was 31.1 µM (inactive).

And the GI50 (HOP-92)?
The GI50 was > 100 µM (inactive).

What about the GI50 (SK-OV-3) of the same molecule?
The GI50 was 89.1 µM (inactive).

And the GI50 (ACHN)?
The GI50 was 67.6 µM (inactive).

What about the GI50 (786-0) of the same molecule?
The GI50 was 63.4 µM (inactive).

And the GI50 (SF-295)?
The GI50 was 28.7 µM (inactive).

And the GI50 (SF-539)?
Its GI50 is 43.2 µM (inactive).

And the GI50 (MOLT-4)?
The GI50 was 21.3 µM (inactive).

What about the GI50 (CAKI-1) of the same molecule?
Its GI50 is 31 µM (inactive).

What about the GI50 (K562) of the same molecule?
The GI50 was 38.8 µM (inactive).

What about the GI50 (RXF 393) of the same molecule?
The GI50 was 64.9 µM (inactive).

And the GI50 (T47D)?
Its GI50 is 32.2 µM (inactive).

What about the GI50 (Hs-578T) of the same molecule?
The GI50 was 26 µM (inactive).

And the GI50 (HCT-15)?
Its GI50 is 28.3 µM.

What about the GI50 (MDA-MB-231) of the same molecule?
Its GI50 is 75.7 µM (inactive).

And the GI50 (MDA-MB-435)?
The GI50 was 19.9 µM (inactive).

What about the GI50 (RPMI-8226) of the same molecule?
Its GI50 is 40.9 µM (inactive).

And the GI50 (UACC-62)?
Its GI50 is 44.5 µM (inactive).

What about the GI50 (UACC-257) of the same molecule?
Its GI50 is 49.4 µM (inactive).

With NC(=O)NC(=O)c1cccc(NC(=O)CI)c1 as the molecule, how does the GI50 (SF-268) read?
Its GI50 is 0.0254 µM (active).

And the GI50 (UO-31)?
Its GI50 is 0.162 µM (active).

What about the GI50 (HOP-92) of the same molecule?
Its GI50 is < 0.01 µM (active).

What about the GI50 (SK-OV-3) of the same molecule?
Its GI50 is 0.0607 µM (active).

What about the GI50 (ACHN) of the same molecule?
The GI50 was < 0.017 µM (active).

What about the GI50 (786-0) of the same molecule?
The GI50 was < 0.01 µM (active).

What about the GI50 (SF-295) of the same molecule?
Its GI50 is 0.274 µM (active).

And the GI50 (SF-539)?
The GI50 was < 0.0229 µM (active).

And the GI50 (MOLT-4)?
Its GI50 is < 0.01 µM (active).

And the GI50 (CAKI-1)?
The GI50 was < 0.01 µM (active).

What about the GI50 (K562) of the same molecule?
Its GI50 is < 0.01 µM (active).

And the GI50 (RXF 393)?
Its GI50 is 0.0513 µM (active).

What about the GI50 (T47D) of the same molecule?
Its GI50 is 1.66 µM (inactive).

And the GI50 (Hs-578T)?
Its GI50 is 0.0398 µM (active).

What about the GI50 (HCT-15) of the same molecule?
Its GI50 is < 0.0159 µM.

And the GI50 (MDA-MB-231)?
Its GI50 is 0.0622 µM (active).

And the GI50 (MDA-MB-435)?
The GI50 was < 0.01 µM (active).

What about the GI50 (RPMI-8226) of the same molecule?
Its GI50 is < 0.0128 µM (active).

And the GI50 (UACC-62)?
The GI50 was < 0.0152 µM (active).

What about the GI50 (UACC-257) of the same molecule?
The GI50 was < 0.0252 µM (active).
